Assays:
Assay in all cases: relative viability (nuclei count vs DMSO), 5 days (fraction); higher = more cells survive
[1] = compound: CCCS(=O)(=O)Nc1ccc(F)c(C(=O)c2c[nH]c3ncc(-c4ccc(Cl)cc4)cc23)c1F [Vemurafenib] + O=C(c1cc(Cc2n[nH]c(=O)c3ccccc23)ccc1F)N1CCN(C(=O)C2CC2)CC1 [Olaparib] (partner 8 µM)
Summary of the method: (§1)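 Relative viability equals treated-well nuclei counts divided by vehicle-well nuclei counts. Counts came from 4× images of lung cancer cell lines grown in 1536-well plates for 5 days after pin-tool dosing on the day after seeding. Dosing used one drug alone or a fixed anchor-drug dose plus five library-drug doses (not always all listed) in √10 steps, and values are medians of duplicate plates.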

[2] = compound: Cc1nc(NC(=O)N2CCC[C@H]2C(N)=O)sc1-c1ccnc(C(C)(C)C(F)(F)F)c1 [Alpelisib] + CS(=O)(=O)N1CCN(Cc2cc3nc(-c4cccc5[nH]ncc45)nc(N4CCOCC4)c3s2)CC1 [Pictilisib] (partner 1 µM)
Summary of the method: as §1

[3] = compound: COc1cccc2cc(-c3nc([C@H]4CC[C@H](C(=O)O)CC4)n4ncnc(N)c34)[nH]c12 [OSI-027] + O=C(CCCCCCC(=O)Nc1ccccc1)NO [Vorinostat] (partner 1 µM)
Summary of the method: as §1

[4] = compound: CCCS(=O)(=O)Nc1ccc(F)c(C(=O)c2c[nH]c3ncc(-c4ccc(Cl)cc4)cc23)c1F [Vemurafenib] + COc1cccc2cc(-c3nc([C@H]4CC[C@H](C(=O)O)CC4)n4ncnc(N)c34)[nH]c12 [OSI-027] (partner 0.5 µM)
Summary of the method: as §1

Cell Line	relative viability ([1]; first compound 0.3162 µM)	relative viability ([1]; first compound 1 µM)	relative viability ([2]; first compound 0.04 µM)	relative viability ([2]; first compound 0.1265 µM)	relative viability ([2]; first compound 0.4 µM)	relative viability ([2]; first compound 1.265 µM)	relative viability ([2]; first compound 4 µM)	relative viability ([3]; first compound 0.01 µM)	relative viability ([3]; first compound 0.03162 µM)	relative viability ([3]; first compound 0.1 µM)	relative viability ([3]; first compound 0.3162 µM)	relative viability ([3]; first compound 1 µM)	relative viability ([4]; first compound 0.03162 µM)	relative viability ([4]; first compound 0.3162 µM)	relative viability ([4]; first compound 1 µM)	relative viability ([1]; first compound 0.1 µM)	relative viability ([1]; first compound 0.03162 µM)	relative viability ([4]; first compound 0.1 µM)
PC-3 [JPC-3]	1.05	1.25	0.76	0.715	0.737	0.767	0.676	0.649	0.787	0.454	0.56	0.527	0.698	0.724	0.731	–	–	–
NCI-H1648	0.927	0.761	–	–	–	–	–	0.369	0.323	–	0.477	0.236	0.261	0.335	0.259	0.434	–	–
NCI-H1651	0.193	0.169	0.606	0.596	0.638	0.547	0.644	0.57	0.482	0.509	0.528	0.469	0.733	0.698	0.829	0.203	0.167	0.725
NCI-H596	0.63	0.719	0.404	0.413	0.362	0.399	0.358	0.459	0.685	0.497	0.523	0.416	0.686	0.577	0.492	0.657	0.742	0.723
HARA	0.899	0.942	0.3	0.488	0.459	0.326	0.244	0.581	0.568	–	0.507	0.251	0.428	0.407	0.229	0.289	0.761	0.186
NCI-H727	0.726	0.51	0.302	0.462	0.404	0.325	0.373	1.08	1.06	1.11	1.23	1.03	0.571	1.08	0.526	0.774	0.748	0.561
Calu-6	0.549	0.471	0.86	0.945	1.09	0.819	0.841	–	–	–	–	–	–	–	–	0.593	–	–
NCI-H1993	1.26	1.12	0.825	0.803	0.767	0.696	0.918	0.86	0.967	0.717	0.474	0.449	0.523	0.607	0.494	–	0.976	–
HCC-366	–	0.388	0.151	0.137	0.196	0.11	0.222	0.404	0.367	0.325	0.314	0.194	0.886	0.674	0.418	0.304	0.343	0.843
IA-LM	0.78	0.721	0.265	0.412	0.432	0.335	0.327	0.997	0.388	0.652	0.479	0.15	–	–	–	0.818	0.67	–
EPLC-272H	0.834	0.867	0.338	0.282	0.298	0.336	0.262	0.384	0.358	0.267	0.384	0.233	0.268	0.275	0.243	0.742	0.717	0.219
NCI-H441	0.556	0.536	0.438	0.448	0.547	0.382	0.41	0.837	0.77	0.757	0.741	0.431	0.57	0.584	0.418	0.597	0.512	0.476
NCI-H1793	0.879	1.06	0.363	0.486	0.432	0.328	0.314	0.713	0.777	0.444	0.377	0.281	0.274	0.316	0.3	0.497	0.778	–
201T	0.86	0.828	0.655	0.725	0.637	0.642	0.62	0.938	0.934	0.961	0.952	0.828	0.757	0.776	0.497	0.806	0.828	0.78
NCI-H460	–	0.39	0.388	0.389	0.378	0.345	0.297	1.06	0.594	0.685	0.65	0.219	0.549	0.456	0.473	0.408	0.44	0.623
NCI-H1666	0.769	0.782	0.508	0.459	0.536	0.479	0.344	0.993	1.02	1.01	0.915	0.667	0.845	0.98	0.929	0.77	0.715	0.802
HOP-62	0.412	0.438	1.06	0.698	0.988	0.586	0.727	0.586	0.662	0.53	0.546	0.296	0.702	0.678	0.751	0.388	0.38	0.938
SW 1573	0.577	0.531	0.498	0.506	0.557	0.459	0.352	0.818	0.718	0.669	0.728	0.393	0.582	0.564	0.464	0.414	0.435	0.591
NCI-H2085	0.632	0.858	0.503	0.549	0.518	0.427	0.426	0.714	0.73	0.76	0.648	0.549	0.645	0.663	0.637	0.791	0.737	0.37
